Experiments:
Format in all cases: cell-based
PC3 = test: Cancer cell panel, cell viability (resazurin): Prostate, PC3; details: 72 hours, labelled drug combined with Example 3
Method: (§1) Cells were plated in 96-well plates and treated for 72 hours with a serially diluted CK2 inhibitor or anti-cancer drug or their combination. The suspension cell lines were treated right after plating, while the adherent cells were allowed to attach overnight prior to the start of the treatment.
(§2) Cell viability was determined by adding resazurin to cell cultures and measuring fluorescence with a plate reader. Relative cell viability was calculated by dividing the cell viability signal from a test sample by that of a non-treated control. […] Bliss Independence and Highest Single Agent models were used to determine if there is synergy, additivity or antagonism between the CK2 inhibitor and an anti-cancer drug.

SKOV-3 = test: Cancer cell panel, cell viability (resazurin): Ovarian, SKOV-3; details: SKOV-3 (Ovarian), 72 hours; labelled drug combined with Example 3
Method: as §1, §2

OVCAR-3 = test: Cancer cell panel, cell viability (resazurin): Ovarian, OVCAR-3; details: OVCAR-3 (Ovarian), 72 hours; labelled drug combined with Example 3
A2780 = test: Cancer cell panel, cell viability (resazurin): Ovarian, A2780; details: 72 hours, labelled drug combined with Example 3
Caov-3 = test: Cancer cell panel, cell viability (resazurin): Ovarian, Caov-3; details: Caov-3 (Ovarian), 72 hours; labelled drug combined with Example 3
Mia-Paca-2 = test: Cancer cell panel, cell viability (resazurin): Pancreatic, Mia-Paca-2; details: Mia-Paca-2 (Pancreatic), 72 hours; labelled drug combined with Example 3
Method: as §1, §2

Panc-1 = test: Cancer cell panel, cell viability (resazurin): Pancreatic, Panc-1; details: Panc-1 (Pancreatic), 72 hours; labelled drug combined with Example 3
BxPC3 = test: Cancer cell panel, cell viability (resazurin): Pancreatic, BxPC3; details: 72 hours, labelled drug combined with Example 3
HCT116 = test: Cancer cell panel, cell viability (resazurin): Colon, HCT116; details: 72 hours, labelled drug combined with Example 3
HT29 = test: Cancer cell panel, cell viability (resazurin): Colon, HT29; details: 72 hours, labelled drug combined with Example 3
Method: as §1, §2

Colo205 = test: Cancer cell panel, cell viability (resazurin): Colon, Colo205; details: 72 hours, labelled drug combined with Example 3
LoVo = test: Cancer cell panel, cell viability (resazurin): Colon, LoVo; details: 72 hours, labelled drug combined with Example 3
DLD-1 = test: Cancer cell panel, cell viability (resazurin): Colon, DLD-1; details: DLD-1 (Colon), 72 hours; labelled drug combined with Example 3
H1299 = test: Cancer cell panel, cell viability (resazurin): NSCLC, H1299; details: 72 hours, labelled drug combined with Example 3
A549 = test: Cancer cell panel, cell viability (resazurin): NSCLC, A549; details: 72 hours, labelled drug combined with Example 3
Method: as §1, §2

H460 = test: Cancer cell panel, cell viability (resazurin): NSCLC, H460; details: 72 hours, labelled drug combined with Example 3
H1975 = test: Cancer cell panel, cell viability (resazurin): NSCLC, H1975; details: 72 hours, labelled drug combined with Example 3
Method: as §1, §2

H23 = test: Cancer cell panel, cell viability (resazurin): NSCLC, H23; details: 72 hours, labelled drug combined with Example 3
H2122 = test: Cancer cell panel, cell viability (resazurin): NSCLC, H2122; details: 72 hours, labelled drug combined with Example 3
Method: as §1, §2

SkBr-3 = test: Cancer cell panel, cell viability (resazurin): Breast, SkBr-3; details: SkBr-3 (Breast), 72 hours; labelled drug combined with Example 3
MDA-MB-453 = test: Cancer cell panel, cell viability (resazurin): Breast, MDA-MB-453; details: MDA-MB-453 (Breast), 72 hours; labelled drug combined with Example 3
Method: as §1, §2

MDA-MB-231 = test: Cancer cell panel, cell viability (resazurin): Breast, MDA-MB-231; details: MDA-MB-231 (Breast), 72 hours; labelled drug combined with Example 3
MDA-MB-157 = test: Cancer cell panel, cell viability (resazurin): Breast, MDA-MB-157; details: MDA-MB-157 (Breast), 72 hours; labelled drug combined with Example 3
Method: as §1, §2

BT-20 = test: Cancer cell panel, cell viability (resazurin): Breast, BT-20; details: BT-20 (Breast), 72 hours; labelled drug combined with Example 3
BT-474 = test: Cancer cell panel, cell viability (resazurin): Breast, BT-474; details: BT-474 (Breast), 72 hours; labelled drug combined with Example 3
Method: as §1, §2

T47D = test: Cancer cell panel, cell viability (resazurin): Breast, T47D; details: 72 hours, labelled drug combined with Example 3
Method: as §1, §2

MCF7 = test: Cancer cell panel, cell viability (resazurin): Breast, MCF7; details: 72 hours, labelled drug combined with Example 3
Method: as §1, §2

ACHN = test: Cancer cell panel, cell viability (resazurin): Renal, ACHN; details: 72 hours, labelled drug combined with Example 3
Method: as §1, §2

Caki-1 = test: Cancer cell panel, cell viability (resazurin): Renal, Caki-1; details: Caki-1 (Renal), 72 hours; labelled drug combined with Example 3
Caki-2 = test: Cancer cell panel, cell viability (resazurin): Renal, Caki-2; details: Caki-2 (Renal), 72 hours; labelled drug combined with Example 3
Method: as §1, §2

A375 = test: Cancer cell panel, cell viability (resazurin): Melanoma, A375; details: 72 hours, labelled drug combined with Example 3
Method: as §1, §2

SK-MEL-24 = test: Cancer cell panel, cell viability (resazurin): Melanoma, SK-MEL-24; details: SK-MEL-24 (Melanoma), 72 hours; labelled drug combined with Example 3
WM-115 = test: Cancer cell panel, cell viability (resazurin): Melanoma, WM-115; details: WM-115 (Melanoma), 72 hours; labelled drug combined with Example 3
U266 = test: Cancer cell panel, cell viability (resazurin): multiple myeloma, U266; details: 72 hours, labelled drug combined with Example 3
Method: as §1, §2

RPMI8226 = test: Cancer cell panel, cell viability (resazurin): multiple myeloma, RPMI8226; details: 72 hours, labelled drug combined with Example 3
Ramos = test: Cancer cell panel, cell viability (resazurin): Burkitt's Lymphoma, Ramos; details: 72 hours, labelled drug combined with Example 3
Method: as §1, §2

Raji = test: Cancer cell panel, cell viability (resazurin): Burkitt's Lymphoma, Raji; details: 72 hours, labelled drug combined with Example 3
Daudi = test: Cancer cell panel, cell viability (resazurin): Burkitt's Lymphoma, Daudi; details: 72 hours, labelled drug combined with Example 3
K562 = test: Cancer cell panel, cell viability (resazurin): Leukemia, K562; details: 72 hours, labelled drug combined with Example 3
Method: as §1, §2

HL60 = test: Cancer cell panel, cell viability (resazurin): Leukemia, HL60; details: 72 hours, labelled drug combined with Example 3
EOL-1 = test: Cancer cell panel, cell viability (resazurin): Leukemia, EOL-1; details: EOL-1 (Leukemia), 72 hours; labelled drug combined with Example 3

CC(C)C[C@H](NC(=O)[C@H](Cc1ccccc1)NC(=O)c1cnccn1)B(O)O [Bortezomib, bortezomib]
synergy, additivity or antagonism of the combination of Example 3 with the anti-cancer drug (PC3): + (Additive relative to each agent alone (CI = 0.9-1 by Bliss Independence Model and <0.9 by Highest Single Agent Model)) | synergy, additivity or antagonism of the combination of Example 3 with the anti-cancer drug (SKOV-3): + + + (Synergy relative to each agent alone (CI = 0.4-0.74 by Bliss Independence Model)) | synergy, additivity or antagonism of the combination of Example 3 with the anti-cancer drug (OVCAR-3): + (Additive relative to each agent alone (CI = 0.9-1 by Bliss Independence Model and <0.9 by Highest Single Agent Model)) | synergy, additivity or antagonism of the combination of Example 3 with the anti-cancer drug (A2780): + + (Slight synergy relative to each agent alone (CI = 0.75-0.9 by Bliss Independence Model)) | synergy, additivity or antagonism of the combination of Example 3 with the anti-cancer drug (Caov-3): + (Additive relative to each agent alone (CI = 0.9-1 by Bliss Independence Model and <0.9 by Highest Single Agent Model)) | synergy, additivity or antagonism of the combination of Example 3 with the anti-cancer drug (Mia-Paca-2): + + (Slight synergy relative to each agent alone (CI = 0.75-0.9 by Bliss Independence Model)) | synergy, additivity or antagonism of the combination of Example 3 with the anti-cancer drug (Panc-1): + (Additive relative to each agent alone (CI = 0.9-1 by Bliss Independence Model and <0.9 by Highest Single Agent Model)) | synergy, additivity or antagonism of the combination of Example 3 with the anti-cancer drug (BxPC3): + + + (Synergy relative to each agent alone (CI = 0.4-0.74 by Bliss Independence Model)) | synergy, additivity or antagonism of the combination of Example 3 with the anti-cancer drug (HCT116): + + (Slight synergy relative to each agent alone (CI = 0.75-0.9 by Bliss Independence Model)) | synergy, additivity or antagonism of the combination of Example 3 with the anti-cancer drug (HT29): + (Additive relative to each agent alone (CI = 0.9-1 by Bliss Independence Model and <0.9 by Highest Single Agent Model)) | synergy, additivity or antagonism of the combination of Example 3 with the anti-cancer drug (Colo205): − (Slightly antagonistic relative to each agent alone (CI = 1.1-1.2 by Highest Single Agent Model)) | synergy, additivity or antagonism of the combination of Example 3 with the anti-cancer drug (LoVo): + (Additive relative to each agent alone (CI = 0.9-1 by Bliss Independence Model and <0.9 by Highest Single Agent Model)) | synergy, additivity or antagonism of the combination of Example 3 with the anti-cancer drug (DLD-1): + + + (Synergy relative to each agent alone (CI = 0.4-0.74 by Bliss Independence Model)) | synergy, additivity or antagonism of the combination of Example 3 with the anti-cancer drug (H1299): + (Additive relative to each agent alone (CI = 0.9-1 by Bliss Independence Model and <0.9 by Highest Single Agent Model)) | synergy, additivity or antagonism of the combination of Example 3 with the anti-cancer drug (A549): + + + (Synergy relative to each agent alone (CI = 0.4-0.74 by Bliss Independence Model)) | synergy, additivity or antagonism of the combination of Example 3 with the anti-cancer drug (H460): + + (Slight synergy relative to each agent alone (CI = 0.75-0.9 by Bliss Independence Model)) | synergy, additivity or antagonism of the combination of Example 3 with the anti-cancer drug (H1975): + (Additive relative to each agent alone (CI = 0.9-1 by Bliss Independence Model and <0.9 by Highest Single Agent Model)) | synergy, additivity or antagonism of the combination of Example 3 with the anti-cancer drug (H23): + (Additive relative to each agent alone (CI = 0.9-1 by Bliss Independence Model and <0.9 by Highest Single Agent Model)) | synergy, additivity or antagonism of the combination of Example 3 with the anti-cancer drug (H2122): + (Additive relative to each agent alone (CI = 0.9-1 by Bliss Independence Model and <0.9 by Highest Single Agent Model)) | synergy, additivity or antagonism of the combination of Example 3 with the anti-cancer drug (SkBr-3): + (Additive relative to each agent alone (CI = 0.9-1 by Bliss Independence Model and <0.9 by Highest Single Agent Model)) | synergy, additivity or antagonism of the combination of Example 3 with the anti-cancer drug (MDA-MB-453): + (Additive relative to each agent alone (CI = 0.9-1 by Bliss Independence Model and <0.9 by Highest Single Agent Model)) | synergy, additivity or antagonism of the combination of Example 3 with the anti-cancer drug (MDA-MB-231): + (Additive relative to each agent alone (CI = 0.9-1 by Bliss Independence Model and <0.9 by Highest Single Agent Model)) | synergy, additivity or antagonism of the combination of Example 3 with the anti-cancer drug (MDA-MB-157): + + + (Synergy relative to each agent alone (CI = 0.4-0.74 by Bliss Independence Model)) | synergy, additivity or antagonism of the combination of Example 3 with the anti-cancer drug (BT-20): + + (Slight synergy relative to each agent alone (CI = 0.75-0.9 by Bliss Independence Model)) | synergy, additivity or antagonism of the combination of Example 3 with the anti-cancer drug (BT-474): + + (Slight synergy relative to each agent alone (CI = 0.75-0.9 by Bliss Independence Model)) | synergy, additivity or antagonism of the combination of Example 3 with the anti-cancer drug (T47D): + (Additive relative to each agent alone (CI = 0.9-1 by Bliss Independence Model and <0.9 by Highest Single Agent Model)) | synergy, additivity or antagonism of the combination of Example 3 with the anti-cancer drug (MCF7): − − (Antagonistic relative to each agent alone (CI = 1.2-1.49 by Highest Single Agent Model)) | synergy, additivity or antagonism of the combination of Example 3 with the anti-cancer drug (ACHN): + + (Slight synergy relative to each agent alone (CI = 0.75-0.9 by Bliss Independence Model)) | synergy, additivity or antagonism of the combination of Example 3 with the anti-cancer drug (Caki-1): + (Additive relative to each agent alone (CI = 0.9-1 by Bliss Independence Model and <0.9 by Highest Single Agent Model)) | synergy, additivity or antagonism of the combination of Example 3 with the anti-cancer drug (Caki-2): + (Additive relative to each agent alone (CI = 0.9-1 by Bliss Independence Model and <0.9 by Highest Single Agent Model)) | synergy, additivity or antagonism of the combination of Example 3 with the anti-cancer drug (A375): + (Additive relative to each agent alone (CI = 0.9-1 by Bliss Independence Model and <0.9 by Highest Single Agent Model)) | synergy, additivity or antagonism of the combination of Example 3 with the anti-cancer drug (SK-MEL-24): + + + (Synergy relative to each agent alone (CI = 0.4-0.74 by Bliss Independence Model)) | synergy, additivity or antagonism of the combination of Example 3 with the anti-cancer drug (WM-115): + + (Slight synergy relative to each agent alone (CI = 0.75-0.9 by Bliss Independence Model)) | synergy, additivity or antagonism of the combination of Example 3 with the anti-cancer drug (U266): + (Additive relative to each agent alone (CI = 0.9-1 by Bliss Independence Model and <0.9 by Highest Single Agent Model)) | synergy, additivity or antagonism of the combination of Example 3 with the anti-cancer drug (RPMI8226): + (Additive relative to each agent alone (CI = 0.9-1 by Bliss Independence Model and <0.9 by Highest Single Agent Model)) | synergy, additivity or antagonism of the combination of Example 3 with the anti-cancer drug (Ramos): + (Additive relative to each agent alone (CI = 0.9-1 by Bliss Independence Model and <0.9 by Highest Single Agent Model)) | synergy, additivity or antagonism of the combination of Example 3 with the anti-cancer drug (Raji): + + (Slight synergy relative to each agent alone (CI = 0.75-0.9 by Bliss Independence Model)) | synergy, additivity or antagonism of the combination of Example 3 with the anti-cancer drug (Daudi): + (Additive relative to each agent alone (CI = 0.9-1 by Bliss Independence Model and <0.9 by Highest Single Agent Model)) | synergy, additivity or antagonism of the combination of Example 3 with the anti-cancer drug (K562): + (Additive relative to each agent alone (CI = 0.9-1 by Bliss Independence Model and <0.9 by Highest Single Agent Model)) | synergy, additivity or antagonism of the combination of Example 3 with the anti-cancer drug (HL60): + (Additive relative to each agent alone (CI = 0.9-1 by Bliss Independence Model and <0.9 by Highest Single Agent Model)) | synergy, additivity or antagonism of the combination of Example 3 with the anti-cancer drug (EOL-1): + + (Slight synergy relative to each agent alone (CI = 0.75-0.9 by Bliss Independence Model))

— patent publication US10227344B2, “CK2 inhibitors, compositions and methods thereof” (Polaris Pharmaceuticals, Inc., priority 2016, dated 2019)
